# Assay results published in ChEMBL document CHEMBL3813672, “Discovery of anti-cancer activity for benzo[1,2,4]triazin-7-ones: Very strong correlation to pleurotin and thioredoxin reductase inhibition” (Bioorg Med Chem, 2016).
# Experiments:
# [1] = Growth inhibition of human HL-60(TB) cells assessed as cell growth at 10 uM incubated for 48 hrs by sulforhodamine B assay relative to control; assay type: functional; settings: HL-60, 48 h, read-out: Activity
# SR = assay: Growth inhibition of human SR cells assessed as cell growth at 10 uM incubated for 48 hrs by sulforhodamine B assay relative to control; assay type: functional; settings: read-out: Activity
# A549 = assay: Growth inhibition of human A549/ATCC cells assessed as cell growth at 10 uM incubated for 48 hrs by sulforhodamine B assay relative to control; assay type: functional; settings: A549, 48 h, read-out: Activity
# [2] = Growth inhibition of human HOP92 cells assessed as cell growth at 10 uM incubated for 48 hrs by sulforhodamine B assay relative to control; assay type: functional; settings: HOP-92, 48 h, read-out: Activity
# [3] = Growth inhibition of human HCT116 cells assessed as cell growth at 10 uM incubated for 48 hrs by sulforhodamine B assay relative to control; assay type: functional; settings: HCT-116, 48 h, read-out: Activity
# HT-29 = assay: Growth inhibition of human HT-29 cells assessed as cell growth at 10 uM incubated for 48 hrs by sulforhodamine B assay relative to control; assay type: functional; settings: HT-29, 48 h, read-out: Activity
# [4] = Growth inhibition of human SW620 cells assessed as cell growth at 10 uM incubated for 48 hrs by sulforhodamine B assay relative to control; assay type: functional; settings: SW-620, 48 h, read-out: Activity
# [5] = Cytotoxicity against human DU145 cells assessed as reduction in cell viability after 72 hrs by MTT assay; assay type: functional, cell-based; settings: DU-145, 72 h
# [6] = Quasi-reversible one electron redox potential in dichloromethane containing 0.1 M TBAP assessed as assessed as redox potential during -1/-2 redox transition at 2 mmol measured at 100 mV/s in presence of Fc/Fc by cyclic voltammetry; assay type: physicochemical
# [7] = Growth inhibition of human SF268 cells assessed as cell growth at 10 uM incubated for 48 hrs by sulforhodamine B assay relative to control; assay type: functional; settings: SF-268, 48 h, read-out: Activity
# [8] = Growth inhibition of human SF539 cells assessed as cell growth at 10 uM incubated for 48 hrs by sulforhodamine B assay relative to control; assay type: functional; settings: SF-539, 48 h, read-out: Activity
# [9] = Growth inhibition of human LOXIMVI cells assessed as cell growth at 10 uM incubated for 48 hrs by sulforhodamine B assay relative to control; assay type: functional; settings: LOX IMVI, read-out: Activity
# Malme-3M = assay: Growth inhibition of human MALME-3M cells assessed as cell growth at 10 uM incubated for 48 hrs by sulforhodamine B assay relative to control; assay type: functional; settings: read-out: Activity
# M14 [10] = assay: Growth inhibition of human M14 cells assessed as cell growth at 10 uM incubated for 48 hrs by sulforhodamine B assay relative to control; assay type: functional; settings: M14, 48 h, read-out: Activity
# MDA-MB-435 = assay: Growth inhibition of human MDA-MB-435 cells assessed as cell growth at 10 uM incubated for 48 hrs by sulforhodamine B assay relative to control; assay type: functional; settings: MDA-MB-435, 48 h, read-out: Activity
# SK-MEL-2 [11] = assay: Growth inhibition of human SK-MEL-2 cells assessed as cell growth at 10 uM incubated for 48 hrs by sulforhodamine B assay relative to control; assay type: functional; settings: SK-MEL-2, 48 h, read-out: Activity
# [12] = Growth inhibition of human IGROV1 cells assessed as cell growth at 10 uM incubated for 48 hrs by sulforhodamine B assay relative to control; assay type: functional; settings: IGROV-1, 48 h, read-out: Activity
# [13] = Growth inhibition of human OVCAR4 cells assessed as cell growth at 10 uM incubated for 48 hrs by sulforhodamine B assay relative to control; assay type: functional; settings: OVCAR-4, 48 h, read-out: Activity
# [14] = Growth inhibition of human OVCAR5 cells assessed as cell growth at 10 uM incubated for 48 hrs by sulforhodamine B assay relative to control; assay type: functional; settings: OVCAR-5, 48 h, read-out: Activity
# [15] = Growth inhibition of human OVCAR8 cells assessed as cell growth at 10 uM incubated for 48 hrs by sulforhodamine B assay relative to control; assay type: functional; settings: OVCAR-8, 48 h, read-out: Activity
# 786-0 = assay: Growth inhibition of human 786-0 cells assessed as cell growth at 10 uM incubated for 48 hrs by sulforhodamine B assay relative to control; assay type: functional; settings: 786-0, 48 h, read-out: Activity
# A498 = assay: Growth inhibition of human A498 cells assessed as cell growth at 10 uM incubated for 48 hrs by sulforhodamine B assay relative to control; assay type: functional; settings: A498, 48 h, read-out: Activity
# [16] = Growth inhibition of human UO31 cells assessed as cell growth at 10 uM incubated for 48 hrs by sulforhodamine B assay relative to control; assay type: functional; settings: UO-31, 48 h, read-out: Activity
# [17] = Growth inhibition of human DU145 cells assessed as cell growth at 10 uM incubated for 48 hrs by sulforhodamine B assay relative to control; assay type: functional; settings: DU-145, 48 h, read-out: Activity
# MCF7 [18] = assay: Growth inhibition of human MCF7 cells assessed as cell growth at 10 uM incubated for 48 hrs by sulforhodamine B assay relative to control; assay type: functional; settings: MCF7, 48 h, read-out: Activity
# [19] = Growth inhibition of human Hs 578T cells assessed as cell growth at 10 uM incubated for 48 hrs by sulforhodamine B assay relative to control; assay type: functional; settings: read-out: Activity
# [20] = Growth inhibition of human BT549 cells assessed as cell growth at 10 uM incubated for 48 hrs by sulforhodamine B assay relative to control; assay type: functional; settings: BT-549, 48 h, read-out: Activity
# T47D = assay: Growth inhibition of human T47D cells assessed as cell growth at 10 uM incubated for 48 hrs by sulforhodamine B assay relative to control; assay type: functional; settings: read-out: Activity
# ACHN = assay: Growth inhibition of human ACHN cells assessed as cell growth at 10 uM incubated for 48 hrs by sulforhodamine B assay relative to control; assay type: functional; settings: read-out: Activity
# [21] = Growth inhibition of human Caki1 cells assessed as cell growth at 10 uM incubated for 48 hrs by sulforhodamine B assay relative to control; assay type: functional; settings: CAKI-1, 48 h, read-out: Activity
# [22] = Growth inhibition of human SW620 cells incubated for 48 hrs by sulforhodamine B assay; assay type: functional; settings: SW-620, 48 h
# M14 [23] = assay: Growth inhibition of human M14 cells incubated for 48 hrs by sulforhodamine B assay; assay type: functional; settings: M14, 48 h
# SK-MEL-2 [24] = assay: Growth inhibition of human SK-MEL-2 cells incubated for 48 hrs by sulforhodamine B assay; assay type: functional; settings: SK-MEL-2, 48 h
# [25] = Growth inhibition of human OVCAR3 cells incubated for 48 hrs by sulforhodamine B assay; assay type: functional; settings: OVCAR-3, 48 h
# MCF7 [26] = assay: Growth inhibition of human MCF7 cells incubated for 48 hrs by sulforhodamine B assay; assay type: functional; settings: MCF7, 48 h
# [27] = read-out: pLC50 (the source's name) (converted)
structure (smiles),measurement,setting,value
O=c1ccc2nc(-c3ccccc3)nn(-c3ccccc3)c-2c1,growth at 10 µM,[1],-45.5%
same,growth at 10 µM,SR,-20.2%
same,growth at 10 µM,A549,73.6%
same,growth at 10 µM,[2],-33%
same,growth at 10 µM,[3],-90.7%
same,growth at 10 µM,HT-29,-53.5%
same,growth at 10 µM,[4],-60.5%
same,IC50,[5],0.23 µM
same,Activity,[6],-1.75 V
same,growth at 10 µM,[7],70.5%
same,growth at 10 µM,[8],105%
same,growth at 10 µM,[9],-51.6%
same,growth at 10 µM,Malme-3M,-92.5%
same,growth at 10 µM,M14 [10],51.2%
same,growth at 10 µM,MDA-MB-435,24.6%
same,growth at 10 µM,SK-MEL-2 [11],44.6%
same,growth at 10 µM,[12],2.56%
same,growth at 10 µM,[13],-40.6%
same,growth at 10 µM,[14],102%
same,growth at 10 µM,[15],-2.36%
same,growth at 10 µM,786-0,48.6%
same,growth at 10 µM,A498,84.4%
same,growth at 10 µM,[16],-97.5%
same,growth at 10 µM,[17],-95.5%
same,growth at 10 µM,MCF7 [18],-66.7%
same,growth at 10 µM,[19],75.9%
same,growth at 10 µM,[20],90.2%
same,growth at 10 µM,T47D,-36.5%
same,growth at 10 µM,ACHN,-96%
same,growth at 10 µM,[21],-90.9%
O=c1ccc2nc(C(F)(F)F)nn(-c3ccccc3)c-2c1,growth at 10 µM,[1],-36.6%
same,growth at 10 µM,SR,-11.3%
same,growth at 10 µM,A549,93%
same,growth at 10 µM,[2],35.2%
same,growth at 10 µM,[3],35.2%
same,growth at 10 µM,HT-29,-64.3%
same,growth at 10 µM,[4],-63.3%
same,GI50,[22],1.74 µM
same,CC50,[22]; [27],7.94 µM
same,TGI,[22]; read-out: pTGI (converted),3.72 µM
same,GI50,M14 [23],5.75 µM
same,CC50,M14 [23]; [27],45.7 µM
same,TGI,M14 [23]; read-out: pTGI (converted),19.1 µM
same,GI50,SK-MEL-2 [24],3.63 µM
same,CC50,SK-MEL-2 [24]; [27],58.9 µM
same,TGI,SK-MEL-2 [24]; read-out: pTGI (converted),15.5 µM
same,GI50,[25],1.58 µM
same,CC50,[25]; [27],5.5 µM
same,TGI,[25]; read-out: pTGI (converted),2.95 µM
same,GI50,MCF7 [26],0.49 µM
same,CC50,MCF7 [26]; [27],> 100 µM
same,TGI,MCF7 [26]; read-out: pTGI (converted),4.07 µM
same,IC50,[5],0.85 µM
same,Activity,[6],-1.55 V
same,growth at 10 µM,[7],77.4%
same,growth at 10 µM,[8],92.8%
same,growth at 10 µM,[9],4.3%
same,growth at 10 µM,Malme-3M,-41.7%
same,growth at 10 µM,M14 [10],62.1%
same,growth at 10 µM,MDA-MB-435,62.3%
same,growth at 10 µM,SK-MEL-2 [11],78.3%
same,growth at 10 µM,[12],71.7%
same,growth at 10 µM,[13],79.8%
same,growth at 10 µM,[14],102%
same,growth at 10 µM,[15],73.1%
same,growth at 10 µM,786-0,22.2%
same,growth at 10 µM,A498,79.9%
same,growth at 10 µM,[16],24%
same,growth at 10 µM,[17],40.5%
same,growth at 10 µM,MCF7 [18],-49.3%
same,growth at 10 µM,[19],74%
same,growth at 10 µM,[20],69.2%
same,growth at 10 µM,T47D,-40.5%
same,growth at 10 µM,ACHN,-89%
same,growth at 10 µM,[21],56%
